According to the NIST ThermoML archive (doi:10.1021/je0602824):

Test: xn = mol fraction of the nth substance listed
Settings: 101 kPa, Liquid

CCOS(=O)(=O)[O-].CCn1cc[n+](C)c1 [1-ethyl-3-methylimidazolium ethyl sulfate] + O
Settings | mass density [kg/m3] | viscosity [mPa·s]
278.15 K, x2 = 0 | 1251.12 | 308
278.15 K, x2 = 0.0001 | – | 308
278.15 K, x2 = 0.2112 | 1246.59 | –
278.15 K, x2 = 0.2245 | – | 150
278.15 K, x2 = 0.4084 | – | 83
278.15 K, x2 = 0.4119 | 1239.56 | –
278.15 K, x2 = 0.5939 | 1227.74 | –
278.15 K, x2 = 0.5976 | – | 45
278.15 K, x2 = 0.7669 | 1201.83 | –
278.15 K, x2 = 0.7675 | – | 22
278.15 K, x2 = 0.8487 | 1175.63 | –
278.15 K, x2 = 0.9292 | 1120.63 | 6
278.15 K, x2 = 0.9683 | 1066.86 | –
278.15 K, x2 = 0.9916 | 1021.13 | –
288.15 K, x2 = 0 | 1244.13 | 166
288.15 K, x2 = 0.2112 | 1239.79 | –
288.15 K, x2 = 0.2245 | – | 86
288.15 K, x2 = 0.4084 | – | 49
288.15 K, x2 = 0.4119 | 1232.7 | –
288.15 K, x2 = 0.5939 | 1220.8 | –
288.15 K, x2 = 0.5976 | – | 27
288.15 K, x2 = 0.7669 | 1194.85 | –
288.15 K, x2 = 0.7675 | – | 14
288.15 K, x2 = 0.8487 | 1168.83 | –
288.15 K, x2 = 0.9292 | 1115.02 | 5
288.15 K, x2 = 0.9683 | 1063.25 | –
288.15 K, x2 = 0.9916 | 1019.46 | –
298.15 K, x2 = 0 | 1237.37 | 95
298.15 K, x2 = 0.2112 | 1232.99 | –
298.15 K, x2 = 0.2245 | – | 54
298.15 K, x2 = 0.4084 | – | 33
298.15 K, x2 = 0.4119 | 1225.85 | –
298.15 K, x2 = 0.5939 | 1213.87 | –
298.15 K, x2 = 0.5976 | – | 19
298.15 K, x2 = 0.7669 | 1187.81 | –
298.15 K, x2 = 0.7675 | – | 10
298.15 K, x2 = 0.8487 | 1161.92 | –
298.15 K, x2 = 0.9292 | 1109.14 | 4
298.15 K, x2 = 0.9683 | 1059.04 | –
298.15 K, x2 = 0.9916 | 1016.78 | –
308.15 K, x2 = 0 | 1230.61 | 62
308.15 K, x2 = 0.2112 | 1226.21 | –
308.15 K, x2 = 0.2245 | – | 36
308.15 K, x2 = 0.4084 | – | 23
308.15 K, x2 = 0.4119 | 1219.02 | –
308.15 K, x2 = 0.5939 | 1206.92 | –
308.15 K, x2 = 0.5976 | – | 14
308.15 K, x2 = 0.7669 | 1180.72 | –
308.15 K, x2 = 0.7675 | – | 8
308.15 K, x2 = 0.8487 | 1154.9 | –
308.15 K, x2 = 0.9292 | 1103 | 4
308.15 K, x2 = 0.9683 | 1054.27 | –
308.15 K, x2 = 0.9916 | 1013.26 | –
318.15 K, x2 = 0 | 1223.9 | 41
318.15 K, x2 = 0.2112 | 1219.45 | –
318.15 K, x2 = 0.2245 | – | 26
318.15 K, x2 = 0.4084 | – | 17
318.15 K, x2 = 0.4119 | 1212.21 | –
318.15 K, x2 = 0.5939 | 1199.97 | –
318.15 K, x2 = 0.5976 | – | 11
318.15 K, x2 = 0.7669 | 1173.56 | –
318.15 K, x2 = 0.7675 | – | 6
318.15 K, x2 = 0.8487 | 1147.77 | –
318.15 K, x2 = 0.9292 | 1096.59 | 3
318.15 K, x2 = 0.9683 | 1049.01 | –
318.15 K, x2 = 0.9916 | 1009.03 | –
328.15 K, x2 = 0 | 1217.23 | 30
328.15 K, x2 = 0.2112 | 1212.74 | –
328.15 K, x2 = 0.2245 | – | 19
328.15 K, x2 = 0.4084 | – | 13
328.15 K, x2 = 0.4119 | 1205.41 | –
328.15 K, x2 = 0.5939 | 1193.01 | –
328.15 K, x2 = 0.5976 | – | 9
328.15 K, x2 = 0.7669 | 1166.34 | –
328.15 K, x2 = 0.7675 | – | 6
328.15 K, x2 = 0.8487 | 1140.52 | –
328.15 K, x2 = 0.9292 | 1089.92 | 3
328.15 K, x2 = 0.9683 | 1043.29 | –
328.15 K, x2 = 0.9916 | 1004.16 | –
338.15 K, x2 = 0 | 1210.6 | 21
338.15 K, x2 = 0.2112 | 1206.05 | –
338.15 K, x2 = 0.2245 | – | 15
338.15 K, x2 = 0.4084 | – | 11
338.15 K, x2 = 0.4119 | 1198.63 | –
338.15 K, x2 = 0.5939 | 1186.03 | –
338.15 K, x2 = 0.5976 | – | 7
338.15 K, x2 = 0.7669 | 1159.05 | –
338.15 K, x2 = 0.7675 | – | 5
338.15 K, x2 = 0.8487 | 1133.14 | –
338.15 K, x2 = 0.9292 | 1083 | 3
338.15 K, x2 = 0.9683 | 1037.15 | –
338.15 K, x2 = 0.9916 | 998.72 | –
348.15 K, x2 = 0 | 1204.01 | 17
348.15 K, x2 = 0.2112 | 1199.4 | –
348.15 K, x2 = 0.2245 | – | 12
348.15 K, x2 = 0.4084 | – | 9
348.15 K, x2 = 0.4119 | 1191.91 | –
348.15 K, x2 = 0.5939 | 1179.05 | –
348.15 K, x2 = 0.5976 | – | 6
348.15 K, x2 = 0.7669 | 1151.68 | –
348.15 K, x2 = 0.7675 | – | 4
348.15 K, x2 = 0.8487 | 1125.7 | –
348.15 K, x2 = 0.9292 | 1075.83 | 2
348.15 K, x2 = 0.9683 | 1030.61 | –
348.15 K, x2 = 0.9916 | 992.76 | –
